Reference: patent US20240174697A1, “PH-ACTIVABLE FLUORESCENT PROBES FOR TARGETING CELL ORGANELLES” (Purdue Research Foundation, priority 2021, published 2024)
“Also recorded” adds a separate entry of the source.

Key:
[1] = Solubility in aqueous medium / pH solutions; assay type: physicochemical
[2] = Absorption and fluorescence spectra at different pH solutions, pKa; assay type: physicochemical; conditions: in a mixture of DMSO: acetonitrile
[3] = as above; assay type: physicochemical
Method: Spectrum recorded at room temperature in PBS buffer at varying pH with 1% (v/v) of DMSO, in all cases probe concentration=10 μM.
Next, we investigated the absorption and fluorescent properties of LysoShine 1, LysoShine 2, and MitoShine (FIG. 2). The LysoShine 1 in different pH solutions of phosphate buffer (1% DMSO in 1M PBS) has an absorption centered around 500 nm and emission maximum at 505 nm with 480 nm excitation. […] We tested the mitochondrial targeting property of MitoShine (max. absorption 505 nm, max. emission 535 nm, excitation 480 nm). […] We also tested the photophysical property of the important synthetic intermediate compound 10 (absorption maximum 505 nm, max, emission 510 nm at excitation 480 nm).

BV2 microglia [4] = assay: MTT assay, metabolic activity of BV2 microglia; assay type: cell-based, mouse; conditions: 24 hours
Method: (§1) The dried fluorescent probes powders were resuspended in cell grade DMSO to prepare 5 mM stock solutions. This stock was used to make a 1, 5, or 10 μM dilution of the probe in cell culture media. The diluted probe solutions were filtered through 0.22 µm filters before adding to the cells.
Murine microglial BV2 cells (10,000 cells/well) were seeded in a 96 well plate and cultured for 24 hours at 37° C. in a 5% CO2 incubator. Next day, the media was aspirated, and the cells were rinsed twice with PBS (pH 7.4) followed by treatment with 1, 5, or 10 μM of the probe solution made in DMSO (final DMSO concentration=0.05%) for 24 hours in the incubator. Next, the media was aspirated and 20 μL of 5 mg/mL 3-(4,5dimethylthiazol-2-yl)-2,5-diphenyltetrazolium bromide (MTT) solution was added to the cells and then incubated for three hours. The MTT solution was then removed and 100 μL DMSO was added to dissolve the violet formazan crystals. The plate was shaken for 5 minutes using an orbital shaker. The absorbance value at 450 nm was recorded and the percent cell metabolic activity was calculated as the ratio of sample absorbance to control absorbance.

BV2 microglia [5] = assay: LDH cytotoxicity assay on BV2 microglia; assay type: cell-based, mouse; conditions: BV2
Method: as §1
The cytotoxicity of the fluorescent probes was determined using the Invitrogen™ CyQUANT™ LDH Cytotoxicity Assay kit which measures the release of Lactate dehydrogenase (LDH) from the dead and dying cells. The assay was performed per the manufacturer's protocol. Briefly, BV2 cells (5000 cells/100 μL/well) were seeded in a 96 well plate and cultured for 24 hours at 37° C. in a 5% CO2 incubator. After 24 hours, the media was removed, and the cells were treated with 1, 5, or 10 μM of the probes for 2 or 24 hours of incubation. Three additional wells were treated with the given lysis buffer for 45 minutes (positive control). After the corresponding incubation period, the total LDH release was measured using a fluorescent plate reader. The cells without any probe treatment correspond to spontaneous LDH release and were taken as negative control and the cells treated with the lysis buffer correspond to maximum LDH release. The percentage cytotoxicity of the probes was determined as follows: […]

BV2 microglia [6] = assay: Cellular uptake of the fluorescent probes; assay type: in vitro ADME, mouse; conditions: 2 hour treatment, 10 μM, BV2
Method: FIG. 7 describes percent uptake efficiency of the fluorescent probes in BV2 microglia. Cellular uptake of the probe at different concentrations after two hours of incubation. The % uptake efficiency was determined as the percentage of probe taken up by cells out of the total amount of probe in the initial incubation solution. Bars depict n=3 data with SD.
Cellular uptake of the florescent probes was determined in-vitro as following: BV2 cells (20,000 cells/well) were seeded in a 96 well plate and cultured overnight at 37° C. in a 5% CO2 incubator. Next day, the media was removed, and the cells were treated with 1, 5, or 10 μM of the probes for 2 hours. After incubation, the supernatant was collected, and the absorbance was recorded at the respective absorbance maxima of the probe. This was compared with absorbance of the probe in media without cells. The percent cellular uptake was calculated as percentage of […]:
% Uptake Efficiency=1-[Asupernatant×100/Aprobe]

primary mouse microglia [7] = assay: Flow cytometry analysis of probe fluorescence in live cells; assay type: cell-based; conditions: co-staining with MitoLite dye
Source text: FIGS. 3A-3E. […] Modal corresponds to a percentage of the maximum count. […] US Ctrl is unstained control. Gating strategy and flow plots with commercial dyes in supporting information.
A detailed protocol for the isolation and culture of primary microglia from adult mouse brains is previously described^2. Briefly, CD11^+ primary microglia were isolated from adult C57BL/6 mice aged 5-7 months of age (both male and female sexes) and cultured as follows. Mice were euthanized with CO2 following the PACUC guidelines, perfused brains were removed and cut into small pieces before homogenizing them in DPBS++with 0.4% DNase-I on the tissue dissociator at 37° C. After filtering the cells through a 70 μm filter, myelin was removed two times, first using gradient centrifugation with Percoll PLUS reagent followed by the use of myelin removal beads on the magnetic column separators. After myelin removal, CD11^+ cells were selected from the single cell suspension using the CD11^+ beads as per the manufacturer's instructions. […]
Primary mouse microglia were treated with 1, 5, or 10 μM fluorescent probes for 2 hours for the cells to uptake the probe. […] Around 10-20 thousand cells were gated from the live cells in order to analyze the cellular fluorescence signal corresponding to the LysoShine/Lysotracker or Mitoshine/MitoLite probes.

primary mouse microglia [8] = assay: Confocal imaging, localization of probes in primary microglia; assay type: cell-based; conditions: 10 μM probe 2 hours, co-staining LysoTracker / MitoLite / DAPI
Method: A detailed protocol for the isolation and culture of primary microglia from adult mouse brains is previously described^2. Briefly, CD11^+ primary microglia were isolated from adult C57BL/6 mice aged 5-7 months of age (both male and female sexes) and cultured as follows. Mice were euthanized with CO2 following the PACUC guidelines, perfused brains were removed and cut into small pieces before homogenizing them in DPBS++with 0.4% DNase-I on the tissue dissociator at 37° C. After filtering the cells through a 70 μm filter, myelin was removed two times, first using gradient centrifugation with Percoll PLUS reagent followed by the use of myelin removal beads on the magnetic column separators. After myelin removal, CD11^+ cells were selected from the single cell suspension using the CD11^+ beads as per the manufacturer's instructions. The CD11^+ cells were finally resuspended in microglia growth media, further diluted in TIC (TGF-β, IL-34, and cholesterol containing) media containing 2% FBS before seeding 0.1×10^6 cells/500 μL/well of a 24-well plate. The cells were maintained at 37° C. and 10% CO2 with half-media change every other day until the day of compound treatment (around 12-14 div). For confocal imaging experiments, around 50,000 cells/2 mL cells were sub-cultured at the center of 35 mm glass-bottom imaging dishes (FluoroDish™ #FD35).
The localization of the fluorescent probes was visualized using confocal microscopy. The cells were incubated with 10 μM probe for 2 hours and then the media was aspirated. The cells were then incubated with 100 nM LysoTracker (1 mM stock from Thermo #L7528) or with 0.5x MitoLite (1000-fold dilution from 500x stock of AAT Bioquest #22678) for 1.5 hours. The media was aspirated, and the cells were fixed with 4% paraformaldehyde for 10 mins followed by nuclear staining with 1 μM/mL DAPI for 5 mins. For BV2 microglia grown on glass coverslips, the coverslips were removed from the wells and transferred to glass slides with a drop of anti-fade reagent (Thermo Fisher Scientific #P36930). […]

| Compound | solubility in aqueous medium ([1]; aqueous medium) | solubility in DMSO: acetonitrile ([1]; mixture of DMSO: acetonitrile) | pH at which significant fluorescence is shown [2] | pKa ([3]; PBS buffer at varying pH, 1% (v/v) DMSO, probe 10 μM, room temperature) | emission maximum ([3]; excitation 480 nm, pH solutions of phosphate buffer, 1% DMSO) | pH at which high fluorescence is shown ([3]; pH buffer solutions) | absorption maximum ([3]; pH solutions of phosphate buffer, 1% DMSO) | solubility upon addition of pH solutions ([1]; final DMSO concentration 1%) | cellular metabolic activity (BV2 microglia [4]; 1 μM) | cellular metabolic activity (BV2 microglia [4]; 5 μM or higher) | cytotoxicity (LDH release) (BV2 microglia [5]; 2 hour, 1 and 5 μM) | cytotoxicity (LDH release) (BV2 microglia [5]; 24 hours, 10 μM and 5 μM) | uptake efficiency (BV2 microglia [6]) | live cells positive for probe and MitoLite (primary mouse microglia [7]) | localization of the probe within cell organelles (primary mouse microglia [8]) |
| --- | --- | --- | --- | --- | --- | --- | --- | --- | --- | --- | --- | --- | --- | --- | --- |
| CCOC(=O)C1=C(C)C2=C(c3ccc(N(C)C)cc3)c3c(C)c(C(=O)OCC)c(C=Cc4ccc(O)c([N+](=O)[O-])c4)n3[B-](F)(F)[N+]2=C1C [Compound 6b, Diethyl (E)-10-(4-(Dimethylamino)phenyl)-5,5-difluoro-3-(4-hydroxy-3-nitrostyryl)-1,7,9-trimethyl-5H-414,514-dipyrrolo[1,2-c:2′,1′-f][1,3,2]diazaborinine-2,8-dicarboxylate] | sparingly soluble | soluble | less than 6 | – | – | – | – | – | – | – | – | – | – | – | – |
| CCOC(=O)C1=C(C)C2=C(c3ccc(NC(=O)C[P+](c4ccccc4)(c4ccccc4)c4ccccc4)cc3)c3c(C)c(C(=O)OCC)c(C)n3[B-](F)(F)[N+]2=C1C.[Br-] [MitoShine, (2-((4-(2,8-bis(ethoxycarbonyl)-5,5-difluoro-1,3,7,9-tetramethyl-5H-414,514-dipyrrolo[1,2-c:2′, 1′-f][1,3,2]diazaborinin-10-yl)phenyl)amino)-2-oxoethyl)triphenylphosphonium bromide] | – | – | – | 4.4 | 535 nm | 4 | 505 nm | maintains its solubility | high cellular metabolic activity | 10% | no cytotoxicity | around 20% | 30% | around 87% | co-localized with MitoLite; also recorded: colocalization of MitoShine in both mitochondrial as well as in lysosomal organelles |
